In assay [1] the test system is AKT and phospho-AKT in BT-474, SKBR-3, U87, MCF-7, MDA-468 cells. The assay can be described thus: Western blot of AKT and phospho-AKT in a panel of cell lines. The assay is classed as cell-based, human. The method, then: (§1) Cells were treated with 1 uM CNF-101 (17-AAG) for 24 hrs, washed, harvested and lysed in NP-40. Lysates were resolved by SDS-PAGE, transferred onto Immobilon PVDF membranes, blocked in 5% nonfat milk and probed with antibodies to AKT or […] phosphorylated AKT (phospho-AKT) from Upstate. Following incubation with HRP-conjugated secondary antibodies, proteins were detected using chemiluminescnce (Amersham). AKT is a key kinase in tumor cells.
Background: A western blot detects proteins with antibodies after separation by electrophoresis.

In assay [2] the test system is AKT kinase activity in HER-2-low MCF-7 line. The assay can be described thus: AKT kinase activity after immunoprecipitation (GSK-1 substrate, 32-P ATP) in MCF-7 cells. Conditions: ten times 100 nM. It counts as cell-based, human. On the procedure: as §1, with “(Amersham). AKT kinase activity was assessed following immunopreciptation by a standard kinase assay with the recombinant AKT substrate protein […] and 32-P labelled ATP. AKT is a” for “(Amersham). AKT is a”

Assay [3] deals with HER-2, AKT and phospho-AKT in BT-474 xenografts. In words: Western blot of HER-2, AKT and phospho-AKT in BT-474 breast carcinoma xenografts. Conditions: 50 mg/kg, intraperitoneally. It counts as in vivo, Swiss nu/nu mice. On the procedure: BT-474 breast tumor cells were implanted subcutaneously on the flank of Swiss nu/nu mice and allowed to become established to a diameter of 5 mm. Animals were treated intraperitoneally with optimal doses of CNF-101 (17-AAG) and tumors removed at the indicated times thereafter. Tumor tissue was snap-frozen at the time of removal. For analysis, tissues were rapidly thawed, lysed and assaysed for HER-2, AKT and phospho-AKT by Western blotting.

Assay [4] relates to AKT and phospho-AKT in HER-2+++ and HER-2- cells. In words: Western blot of AKT and phospho-AKT in HER-2+++ and HER-2- cells. The assay is classed as cell-based, human. Conditions: 1 uM, 24 hrs. The method, then:
as §1, with “(Amersham). AKT kinase activity was assessed following immunopreciptation by a standard kinase assay with the recombinant AKT substrate protein […] and 32-P labelled ATP. AKT is a” for “(Amersham). AKT is a”

Assay [5] relates to cyclin D1, cyclin D3, cdk4, AKT, Raf-1 in MCF-7 cells. In words: Immunoblot of protein expression in MCF-7 (HER-2 negative) cells. The assay is classed as cell-based, human. Conditions: 50 nM or 500 nM. On the procedure: (§2) Levels of mitotic cyclin expression, HER-2 expression, AKT expression and Raf1 expression in MCF-7 (HER-2 negative) or BT-474 (HER-2+++) cell lines treated with CNF-101 (17-AAG) were assessed using immunoblot analysis. Immunoblot analysis of lysates from cells treated with either 50 nM or 500 nM CNF-101 (17-AAG) were analyzed by Western blot using anti-cyclin D1, anti-cyclin D3, anti-cyclin cdk4, anti-AKT or anti-Raf1 antibodies. All antibodies were obtained from Santa Cruz Biotechnology (Santa Cruz, Calif., USA). Treated cells were harvested, washed with PBS and lysed in NP40 lysis buffer (50 mM Tris pH7.4, 1% NP40,150 mM NaCl, 40 mM NaF. 1 mM Na3VO4, 1 mM phenylmethylsulfonylfluoride, and 10 μg/ml each of leupeptin, aprotinin and soybean trypsin inhibitor) for 30 min on ice. Lysates were centrifuged at 15,000×g for 10 min and protein concentration determined by bicinchoninic acid protein assay (Pierce). Equal amounts of total protein were resolved by SDS-PAGE and transferred onto Immobilon PVDF membranes (Millipore) by electroblotting. Blots were blocked overnight in 5% nonfat milk in TBS-T (0.1% Tween-20 TBS, 10 mM Tris pH 7.4, 150 mM NaCl) at 4° C. and subsequently probed with either anti-HER-2, anti-cylin D1, anti-cyclin D3, anti cdk4, anti-AKT or anti-Raf1 antibodies. Following incubation with HRP-conjugated secondary antibodies, proteins were detected by chemiluminescence (Amersham).

The subject of assay [6] is human cancer cell lines BT-474, SKBR-3, SKOV-3, MCF-Her2, MCF-7, MDA-468, MDA-231, T47-D, MDA435. In words: Antiproliferative effect on cancer cell lines expressing different amounts of HER-2 (ethidium bromide nuclei staining, flow cytometry). It counts as cell-based. On the procedure: Human cancer cell lines BT-474, SKBR-3, SKOV-3, MCF-Her2, MCF-7, MDA-468, MDA-231, T47-D, and MDA435 were obtained from the American Type Culture Collection (“ATCC;” Manassas, Va., USA). Cell lines were maintained in […] medium, supplemented with 5% fetal calf serum (BRL), 2 mM glutamine, and 50 U/ml each of penicillin and streptomycin, at 37° C. in 5% CO2.
Cells were treated for 24 hours with CNF-101 (17-AAG) at concentrations of 1 to 1000 nM. Following treatment, the nuclei were stained with ethidium bromide and analyzed by flow cytometry. Nuclei were isolated for flow cytometry assays, stained with ethidium bromide and analyzed using a Becton Dickinson fluorescence-activated cell sorter. Statistical data was obtained using Multicycle program software.
Those cell lines expressing the highest levels of HER-2 were the most sensitive to CNF-101 (17-AAG) (FIG. 1).
Background: Flow cytometry measures light scatter and fluorescence of single cells or particles in a stream.

Assay [7] has as its system AKT kinase activity in high HER-2 (SKBr3) cells. The assay can be described thus: AKT kinase activity after immunoprecipitation (GSK-1 substrate, 32-P ATP) in SKBr3 cells. Conditions: 100 nM. It counts as cell-based, human. The method, then: Lysates were resolved by SDS-PAGE, transferred onto Immobilon PVDF membranes, blocked in 5% nonfat milk and probed with antibodies to AKT or […] phosphorylated AKT (phospho-AKT) from Upstate. Following incubation with HRP-conjugated secondary antibodies, proteins were detected using chemiluminescnce (Amersham). AKT kinase activity was assessed following immunopreciptation by a standard kinase assay with the recombinant AKT substrate protein […] and 32-P labelled ATP. AKT is a key kinase in tumor cells.

Assay [8] deals with cyclin D1, cyclin D3, cdk4, AKT, Raf-1 in BT-474 cells. The assay can be described thus: Immunoblot of protein expression in BT-474 (HER-2+++) cells. The assay is classed as cell-based, human. Conditions: 50 nM or 500 nM. On the procedure: as §2
[9] abbreviates: 1 uM, 24 hrs, panel of cell lines.
[10] abbreviates: HER low expressing cells (MCF-7).
Setting [11] is: HER-2 overexpressing cells (BT-474).

With `C=CCNC1=C2C[C@@H](C)C[C@H](OC)[C@H](O)[C@@H](C)/C=C(\C)[C@H](OC(N)=O)[C@@H](OC)/C=C\C=C(/C)C(=O)NC(=CC1=O)C2=O` [CNF-101 (17-AAG), 17-allylamino-17-demethoxygeldanamycin], in assay [1] (setting [9]), the AKT protein level entry is “does not cause significant loss of the protein” and the phospho-AKT level result is on record as “disappears from the treated cells”. The AKT activity entry in assay [1] (1 uM, multiple cell lines) was “causes loss of AKT activity in multiple cell lines”. Also, the “loss of AKT activity in high HER-2 lines versus low HER-2 lines” value in assay [1] (high HER-2: BT-474, SKBR-3, low HER-2: U87, MCF-7, MDA-468) was “much more rapid and complete loss of AKT activity”. In addition, the “time to cause even partial loss of AKT kinase activity” value in assay [2] came out at 12 h. For the same molecule, in assay [3], the “AKT protein levels in xenograft” value is recorded as “remained constant”, the “HER-2 protein levels in xenograft” value is given as “declined” and the “phosphorylated ("active") AKT protein in xenograft” value is “declined rapidly”. Further, in assay [4], the AKT protein level result is reported as “does not cause significant loss of the protein” and the phospho-AKT level result is listed as “disappears from the treated cells”. In addition, in assay [5] (setting [10]), the AKT protein level result is given as “not affected” and the cdk4 protein level entry is given as “not affected”. Further, in assay [5] (MCF-7 (low HER-2)), the “decrease in cyclin D1 protein level” value was “not seen” and the “decrease in cyclin D3 protein level” value was “not seen”. For the same molecule, the “Raf-1 (HSP90 client protein) level” value in assay [5] (MCF-7, 0, 4, 12, 24 hours) is given as “degradation”. Also, in assay [6] (24 hours, 1 to 1000 nM, all cell lines tested (FIG. 1)), the growth arrest entry is reported as “caused growth arrest in all the cell lines tested”. Moreover, the “difference in sensitivity between congenic pair” value in assay [6] (MCF-7 vs. MCF-7/HER-2) was determined as 10 fold. Further, in assay [6] (high HER-2: BT-474, SKBR-3, SKOV-3, MDA435, low HER-2: MDA-468, MDA-231, T47D), the “sensitivity of high HER-2 lines versus low HER-2 lines” value is recorded as “markedly more sensitive”. Moreover, the “time to complete loss of AKT activity” value in assay [7] is at most 3 h. For the same molecule, in assay [8] (BT-474), the “cyclin D1 protein level” value is listed as “rapid decrease” and the “cyclin D3 protein level” value is listed as “rapid decrease”. Besides, the “Raf-1 (HSP90 client protein) level” value in assay [8] (BT-474, 0, 4, 12, 24 hours) is given as “degradation”. In addition, in assay [8] (setting [11]), the AKT protein level entry is “not affected” and the cdk4 protein level result is listed as “not affected”.

The values are drawn from US7825094B2, “Method of treatment for cancers associated with elevated HER 2 levels” (Sloan-Kettering Institute for Cancer Research, priority 2001, dated 2010).
